Read-outs that look alike come from different tables or passages of the source.
Assays:
Test in all cases: KinomeScan kinase panel, single concentration 10 µM
Type in all cases: binding
KinomeScan kinase panel [1] = target: T1, KinomeScan kinase panel (Homo sapiens, UniProt O75385); details: kinase ULK1; 10 µM
T1 construct: purchased DiscoveRx (KinomeScan)
T1 sequence (O75385 1-1050): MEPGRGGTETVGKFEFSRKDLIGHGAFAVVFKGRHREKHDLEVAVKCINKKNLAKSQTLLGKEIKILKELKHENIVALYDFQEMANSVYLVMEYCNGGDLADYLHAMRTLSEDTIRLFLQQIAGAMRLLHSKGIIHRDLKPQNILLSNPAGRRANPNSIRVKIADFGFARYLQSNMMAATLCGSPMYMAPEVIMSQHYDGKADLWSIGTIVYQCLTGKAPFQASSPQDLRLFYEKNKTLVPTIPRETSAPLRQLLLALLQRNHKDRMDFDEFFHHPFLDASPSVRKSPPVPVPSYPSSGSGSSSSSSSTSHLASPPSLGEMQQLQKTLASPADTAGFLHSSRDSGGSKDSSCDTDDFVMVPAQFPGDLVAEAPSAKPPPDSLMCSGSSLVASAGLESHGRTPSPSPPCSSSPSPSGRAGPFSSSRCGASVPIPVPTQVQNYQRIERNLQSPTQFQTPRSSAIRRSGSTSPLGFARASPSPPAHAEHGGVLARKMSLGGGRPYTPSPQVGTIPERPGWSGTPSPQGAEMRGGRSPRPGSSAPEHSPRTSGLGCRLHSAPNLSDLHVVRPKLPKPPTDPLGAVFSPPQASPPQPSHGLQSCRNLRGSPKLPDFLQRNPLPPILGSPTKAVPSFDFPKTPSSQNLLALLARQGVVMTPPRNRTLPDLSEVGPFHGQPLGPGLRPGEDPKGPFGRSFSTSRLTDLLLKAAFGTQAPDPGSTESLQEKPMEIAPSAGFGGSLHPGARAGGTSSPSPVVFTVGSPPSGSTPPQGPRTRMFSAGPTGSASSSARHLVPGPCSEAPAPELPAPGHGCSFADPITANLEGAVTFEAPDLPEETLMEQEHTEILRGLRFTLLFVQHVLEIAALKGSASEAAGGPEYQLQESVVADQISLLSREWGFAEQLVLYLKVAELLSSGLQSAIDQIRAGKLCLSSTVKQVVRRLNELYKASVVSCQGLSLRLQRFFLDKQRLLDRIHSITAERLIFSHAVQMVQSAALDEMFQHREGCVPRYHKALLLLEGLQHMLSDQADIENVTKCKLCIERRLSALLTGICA

KinomeScan kinase panel [2] = target: T2, KinomeScan kinase panel (Homo sapiens, UniProt P11362); details: FGFR1, 10 µM; read-out: score (%)
T2 construct: purchased DiscoveRx (KinomeScan)
T2 sequence (P11362 22-822): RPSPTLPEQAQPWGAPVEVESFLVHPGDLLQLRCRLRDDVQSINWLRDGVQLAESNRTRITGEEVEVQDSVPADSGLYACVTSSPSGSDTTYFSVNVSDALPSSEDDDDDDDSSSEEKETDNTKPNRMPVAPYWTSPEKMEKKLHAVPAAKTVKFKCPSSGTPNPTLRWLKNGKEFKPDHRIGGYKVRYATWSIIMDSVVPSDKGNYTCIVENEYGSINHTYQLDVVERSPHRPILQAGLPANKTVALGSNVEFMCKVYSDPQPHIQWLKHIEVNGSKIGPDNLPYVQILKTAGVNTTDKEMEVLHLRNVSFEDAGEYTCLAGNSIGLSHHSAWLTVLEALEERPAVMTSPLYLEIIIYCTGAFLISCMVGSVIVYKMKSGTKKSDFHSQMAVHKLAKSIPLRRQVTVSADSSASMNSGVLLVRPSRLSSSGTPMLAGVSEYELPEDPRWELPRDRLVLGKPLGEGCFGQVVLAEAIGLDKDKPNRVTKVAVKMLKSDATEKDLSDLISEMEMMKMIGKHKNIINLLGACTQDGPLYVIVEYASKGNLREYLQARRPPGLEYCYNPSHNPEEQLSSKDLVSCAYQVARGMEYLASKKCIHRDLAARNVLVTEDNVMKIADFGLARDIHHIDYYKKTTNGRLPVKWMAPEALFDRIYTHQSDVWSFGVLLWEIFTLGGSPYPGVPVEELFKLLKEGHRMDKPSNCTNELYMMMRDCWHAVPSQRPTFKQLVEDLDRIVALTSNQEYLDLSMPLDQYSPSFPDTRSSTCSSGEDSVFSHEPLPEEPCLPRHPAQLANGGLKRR

KinomeScan kinase panel [3] = target: T3, KinomeScan kinase panel (Homo sapiens, UniProt P21127); details: CDC2L1, 10 µM; read-out: score (%)
T3 construct: purchased DiscoveRx (KinomeScan)
T3 sequence (P21127 whole entry): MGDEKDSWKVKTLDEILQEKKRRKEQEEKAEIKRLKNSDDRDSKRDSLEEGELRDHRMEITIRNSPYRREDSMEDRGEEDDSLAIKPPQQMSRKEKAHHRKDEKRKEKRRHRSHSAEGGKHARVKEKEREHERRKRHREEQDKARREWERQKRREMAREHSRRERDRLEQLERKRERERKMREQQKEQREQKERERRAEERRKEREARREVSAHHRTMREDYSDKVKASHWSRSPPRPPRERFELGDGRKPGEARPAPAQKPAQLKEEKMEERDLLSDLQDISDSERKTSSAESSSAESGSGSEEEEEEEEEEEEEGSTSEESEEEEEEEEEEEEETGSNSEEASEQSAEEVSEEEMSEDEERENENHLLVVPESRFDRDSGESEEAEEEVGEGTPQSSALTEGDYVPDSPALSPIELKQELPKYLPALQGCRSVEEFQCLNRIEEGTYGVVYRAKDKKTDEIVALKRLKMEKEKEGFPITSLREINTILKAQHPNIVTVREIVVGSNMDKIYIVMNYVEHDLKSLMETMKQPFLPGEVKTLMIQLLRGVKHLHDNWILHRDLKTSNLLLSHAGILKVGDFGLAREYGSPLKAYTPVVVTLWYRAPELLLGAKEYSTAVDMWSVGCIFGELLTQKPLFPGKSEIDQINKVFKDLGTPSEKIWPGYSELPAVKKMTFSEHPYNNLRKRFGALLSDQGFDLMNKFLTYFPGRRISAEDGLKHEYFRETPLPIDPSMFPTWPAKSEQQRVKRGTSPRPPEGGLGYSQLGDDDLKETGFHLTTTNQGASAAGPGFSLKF

KinomeScan kinase panel [4] = target: T4, KinomeScan kinase panel (Homo sapiens, UniProt P24723); details: 10 µM, read-out: score (%)
T4 construct: purchased DiscoveRx (KinomeScan)
T4 sequence (P24723 whole entry): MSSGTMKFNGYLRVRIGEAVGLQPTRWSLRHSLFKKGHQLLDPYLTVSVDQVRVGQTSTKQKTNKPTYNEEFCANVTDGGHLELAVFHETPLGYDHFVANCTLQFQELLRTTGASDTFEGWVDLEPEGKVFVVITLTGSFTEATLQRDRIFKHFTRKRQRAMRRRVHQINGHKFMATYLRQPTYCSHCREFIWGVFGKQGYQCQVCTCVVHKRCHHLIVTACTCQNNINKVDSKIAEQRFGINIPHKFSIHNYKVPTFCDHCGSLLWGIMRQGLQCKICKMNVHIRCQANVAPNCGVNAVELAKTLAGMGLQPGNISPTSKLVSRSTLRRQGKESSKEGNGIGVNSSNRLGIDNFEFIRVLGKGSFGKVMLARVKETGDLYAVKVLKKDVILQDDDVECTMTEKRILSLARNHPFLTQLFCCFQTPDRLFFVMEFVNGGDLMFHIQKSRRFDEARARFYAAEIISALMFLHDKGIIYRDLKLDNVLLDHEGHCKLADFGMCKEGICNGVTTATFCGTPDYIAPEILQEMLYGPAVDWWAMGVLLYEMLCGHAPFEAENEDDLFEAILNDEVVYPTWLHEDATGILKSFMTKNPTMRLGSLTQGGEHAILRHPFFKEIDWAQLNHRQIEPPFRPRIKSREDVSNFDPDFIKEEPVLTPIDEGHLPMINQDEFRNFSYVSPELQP

KinomeScan kinase panel [5] = target: T5, KinomeScan kinase panel (Homo sapiens, UniProt P35590); details: read-out: score (%)
T5 construct: purchased DiscoveRx (KinomeScan)

KinomeScan kinase panel [6] = target: T6, KinomeScan kinase panel (Homo sapiens, UniProt Q05655); details: 10 µM, read-out: score (%)
T6 construct: purchased DiscoveRx (KinomeScan)
T6 sequence (Q05655 whole entry): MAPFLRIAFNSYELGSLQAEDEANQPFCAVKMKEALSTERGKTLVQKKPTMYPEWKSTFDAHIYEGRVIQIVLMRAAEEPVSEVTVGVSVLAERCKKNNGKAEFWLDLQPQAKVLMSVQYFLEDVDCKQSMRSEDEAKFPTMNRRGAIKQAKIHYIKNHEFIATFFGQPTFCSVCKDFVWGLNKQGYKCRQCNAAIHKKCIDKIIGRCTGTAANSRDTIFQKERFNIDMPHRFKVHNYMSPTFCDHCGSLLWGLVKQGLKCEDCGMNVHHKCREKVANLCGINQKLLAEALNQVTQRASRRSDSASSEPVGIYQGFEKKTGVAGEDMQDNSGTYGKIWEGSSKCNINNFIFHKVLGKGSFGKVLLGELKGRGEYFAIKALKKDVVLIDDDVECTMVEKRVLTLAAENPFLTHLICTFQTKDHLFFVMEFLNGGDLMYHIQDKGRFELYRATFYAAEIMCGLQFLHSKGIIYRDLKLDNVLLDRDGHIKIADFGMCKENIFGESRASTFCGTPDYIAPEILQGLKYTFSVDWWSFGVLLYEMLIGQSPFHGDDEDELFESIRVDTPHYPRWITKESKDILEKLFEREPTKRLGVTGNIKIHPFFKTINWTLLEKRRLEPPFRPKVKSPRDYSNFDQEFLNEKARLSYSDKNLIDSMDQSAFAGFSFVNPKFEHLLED

KinomeScan kinase panel [7] = target: T7, KinomeScan kinase panel (Homo sapiens, UniProt Q14680); details: MELK, 10 µM; read-out: score (%)
T7 construct: purchased DiscoveRx (KinomeScan)
T7 sequence (Q14680 whole entry): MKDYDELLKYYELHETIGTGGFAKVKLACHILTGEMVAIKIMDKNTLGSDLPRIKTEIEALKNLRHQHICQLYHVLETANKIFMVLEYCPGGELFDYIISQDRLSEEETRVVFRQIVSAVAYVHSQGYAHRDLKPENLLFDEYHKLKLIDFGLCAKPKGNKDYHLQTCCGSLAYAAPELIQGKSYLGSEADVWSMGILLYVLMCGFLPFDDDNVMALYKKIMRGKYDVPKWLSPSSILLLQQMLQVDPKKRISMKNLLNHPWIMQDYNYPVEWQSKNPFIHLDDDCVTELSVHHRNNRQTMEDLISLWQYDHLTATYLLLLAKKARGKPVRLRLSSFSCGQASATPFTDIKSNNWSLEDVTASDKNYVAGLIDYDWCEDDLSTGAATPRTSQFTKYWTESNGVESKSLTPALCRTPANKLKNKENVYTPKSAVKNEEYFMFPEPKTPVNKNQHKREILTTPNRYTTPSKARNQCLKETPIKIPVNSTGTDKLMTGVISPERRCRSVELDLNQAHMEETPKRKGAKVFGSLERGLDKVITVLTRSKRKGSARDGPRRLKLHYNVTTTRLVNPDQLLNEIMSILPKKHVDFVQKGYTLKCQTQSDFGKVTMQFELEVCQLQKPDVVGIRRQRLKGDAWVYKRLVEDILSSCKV

KinomeScan kinase panel [8] = target: T8, KinomeScan kinase panel (Homo sapiens, UniProt Q96Q40); details: PFTAIRE2, 10 µM; read-out: score (%)
T8 construct: purchased DiscoveRx (KinomeScan)
T8 sequence (Q96Q40 whole entry): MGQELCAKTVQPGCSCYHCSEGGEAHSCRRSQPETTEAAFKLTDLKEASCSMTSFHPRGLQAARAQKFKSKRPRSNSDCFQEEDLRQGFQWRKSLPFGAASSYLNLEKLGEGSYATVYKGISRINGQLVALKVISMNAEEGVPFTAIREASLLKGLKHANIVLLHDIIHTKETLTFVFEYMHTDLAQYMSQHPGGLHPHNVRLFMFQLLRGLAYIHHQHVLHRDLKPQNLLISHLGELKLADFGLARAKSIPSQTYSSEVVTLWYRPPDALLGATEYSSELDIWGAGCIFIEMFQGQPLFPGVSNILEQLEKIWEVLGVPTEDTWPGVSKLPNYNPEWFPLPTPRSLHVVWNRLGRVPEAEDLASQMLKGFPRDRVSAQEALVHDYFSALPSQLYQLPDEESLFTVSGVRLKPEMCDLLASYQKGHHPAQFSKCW

KinomeScan kinase panel [9] = target: T9, KinomeScan kinase panel (Homo sapiens, UniProt Q99759); details: MAP3K3, 10 µM; read-out: score (%)
T9 construct: purchased DiscoveRx (KinomeScan)
T9 sequence (Q99759 1-626): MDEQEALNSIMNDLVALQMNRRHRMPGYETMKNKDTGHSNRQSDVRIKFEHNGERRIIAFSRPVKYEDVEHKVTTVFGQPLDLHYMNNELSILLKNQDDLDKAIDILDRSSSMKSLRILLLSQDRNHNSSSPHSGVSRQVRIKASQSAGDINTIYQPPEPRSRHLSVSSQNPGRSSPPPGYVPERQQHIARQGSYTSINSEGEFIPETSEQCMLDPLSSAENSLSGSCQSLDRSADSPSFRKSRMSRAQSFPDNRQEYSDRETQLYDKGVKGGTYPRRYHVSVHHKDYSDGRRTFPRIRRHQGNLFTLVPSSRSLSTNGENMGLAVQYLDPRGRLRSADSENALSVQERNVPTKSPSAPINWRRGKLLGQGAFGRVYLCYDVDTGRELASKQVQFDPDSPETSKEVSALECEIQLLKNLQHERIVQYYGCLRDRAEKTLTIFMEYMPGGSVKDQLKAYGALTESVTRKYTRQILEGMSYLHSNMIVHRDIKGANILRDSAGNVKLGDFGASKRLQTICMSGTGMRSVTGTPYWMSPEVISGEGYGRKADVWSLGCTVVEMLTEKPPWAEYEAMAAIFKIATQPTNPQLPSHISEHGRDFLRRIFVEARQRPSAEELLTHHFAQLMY

KinomeScan kinase panel [10] = target: T10, KinomeScan kinase panel (Homo sapiens, UniProt Q9BUB5); details: MKNK1, 10 µM; read-out: score (%)
T10 construct: purchased DiscoveRx (KinomeScan)

KinomeScan kinase panel [11] = target: T11, KinomeScan kinase panel (Homo sapiens, UniProt Q9C098); details: DCAMKL3, 10 µM; read-out: score (%)
T11 construct: purchased DiscoveRx (KinomeScan)
T11 sequence (Q9C098 whole entry): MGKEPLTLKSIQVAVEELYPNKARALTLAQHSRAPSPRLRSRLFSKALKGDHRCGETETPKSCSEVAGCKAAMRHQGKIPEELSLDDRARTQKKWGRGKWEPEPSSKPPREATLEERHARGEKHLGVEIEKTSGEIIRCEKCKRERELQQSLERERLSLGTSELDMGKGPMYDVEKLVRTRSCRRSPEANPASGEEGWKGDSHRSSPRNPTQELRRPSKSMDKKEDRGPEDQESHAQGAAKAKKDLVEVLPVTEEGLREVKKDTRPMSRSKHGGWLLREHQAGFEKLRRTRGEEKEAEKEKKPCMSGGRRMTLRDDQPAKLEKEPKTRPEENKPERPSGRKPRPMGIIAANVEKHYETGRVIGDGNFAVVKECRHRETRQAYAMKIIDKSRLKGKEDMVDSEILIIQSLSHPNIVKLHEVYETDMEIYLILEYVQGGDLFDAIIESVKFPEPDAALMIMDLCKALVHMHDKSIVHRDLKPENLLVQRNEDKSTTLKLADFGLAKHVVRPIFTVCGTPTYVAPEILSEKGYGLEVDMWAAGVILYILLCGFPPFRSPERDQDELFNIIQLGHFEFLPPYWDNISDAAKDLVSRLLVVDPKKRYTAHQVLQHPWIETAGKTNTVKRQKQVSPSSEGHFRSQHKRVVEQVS

remaining binding at 10 µM (KinomeScan kinase panel [5]; TIE1, 10 µM) [%] | SMILES | score (%) (KinomeScan kinase panel [1]) | remaining binding at 10 µM (KinomeScan kinase panel [2]) [%] | remaining binding at 10 µM (KinomeScan kinase panel [3]) [%] | remaining binding at 10 µM (KinomeScan kinase panel [4]; PRKCH) [%] | remaining binding at 10 µM (KinomeScan kinase panel [5]; kinase TIE1, 10 µM) [%] | remaining binding at 10 µM (KinomeScan kinase panel [6]; PRKCD) [%] | remaining binding at 10 µM (KinomeScan kinase panel [7]) [%] | remaining binding at 10 µM (KinomeScan kinase panel [8]) [%] | remaining binding at 10 µM (KinomeScan kinase panel [9]) [%] | remaining binding at 10 µM (KinomeScan kinase panel [10]) [%] | remaining binding at 10 µM (KinomeScan kinase panel [11]) [%] | remaining binding at 10 µM (KinomeScan kinase panel [4]; kinase PRKCH) [%] | remaining binding at 10 µM (KinomeScan kinase panel [6]; kinase PRKCD) [%]
 | CCN1CCN(Cc2ccc(NC(=O)c3ccc(C)c(NC(=O)c4cncc(-c5cccs5)c4)c3)cc2C(F)(F)F)CC1 [ALW-II-41-27] | nb (Hits values higher than 30% were considered negative (no binding: nb)) | 2.2 | 1.5 | 4.6 | 1.4 | 1.2 | > 30 | > 30 | 0.25 | 14 | > 30 |  | 
1.2 | CCN1CCN(Cc2ccc(NC(=O)c3ccc(C)c(/C=C/c4cnc5[nH]ccc5c4Cl)c3)cc2C(F)(F)F)CC1 [HG-6-63-01, (E)-3-(2-(4-chloro-1H-pyrrolo[2,3-b]pyridin-5-yl)vinyl)-N-(4-((4-ethylpiperazin-1-yl)methyl)-3-(trifluoromethyl)phenyl)-4-methylbenzamide] | 8.7% | 0.7 | 13 | > 30 |  | > 30 | 22 | > 30 | 4 | > 30 | 2.5 |  | 
 | CCN1CCN(Cc2ccc(NC(=O)c3ccc(C)c(C#Cc4cccnc4)c3)cc2C(F)(F)F)CC1 [XMD15-44] | 24% | 0.25 | 2.5 |  | 1.6 |  | 8.1 | 6.4 | 1.4 | 0.25 | > 30 | 67 | 39

From article PMC4457528, “Identification of Novel Small Molecule Inhibitors of Oncogenic RET Kinase” (PLoS ONE, 2015)
